Data reported in PubChem BioAssay AID1963963 (Molecular Pharmacology Branch, DTP, NCI, 2024).

Test system: 958667-338-R-J2-PDC tumor spheroids viability
Assay: Anticancer human tumor 958667-338-R-J2-PDC patient-derived colon adenocarcinoma cell line growth inhibition [PI3K]
Conditions: spheroids with HUVEC and MSC; for IC50: curve of first compound; for viability, T/C: stronger effect = lower value
Method in brief: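 High-throughput combination screen: PI3K inhibitors crossed with targeted small molecules on complex spheroids of tumor cells, HUVEC and MSCs at 37 degrees C, 5% CO2. Top concentration was at or near clinical Cmax (otherwise 10 microM), with half-log decrements.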

[1] = second compound 0.0316 µM, first compound 0.0316 µM
[2] = second compound 0.0316 µM, first compound 0.1 µM
[3] = second compound 0.0316 µM, first compound 0.316 µM
[4] = second compound 0.0316 µM, first compound 1 µM
[5] = second compound 0.0316 µM, first compound 3.16 µM
[6] = second compound 0.0316 µM, first compound 10 µM
[7] = second compound 0.1 µM, first compound 0.0316 µM
[8] = second compound 0.1 µM, first compound 0.1 µM
[9] = second compound 0.1 µM, first compound 0.316 µM
[10] = second compound 0.1 µM, first compound 1 µM
[11] = second compound 0.1 µM, first compound 3.16 µM
[12] = second compound 0.1 µM, first compound 10 µM
[13] = second compound 0.316 µM, first compound 0.0316 µM
[14] = second compound 0.316 µM, first compound 0.1 µM
[15] = second compound 0.316 µM, first compound 0.316 µM
[16] = second compound 0.316 µM, first compound 1 µM
[17] = second compound 0.316 µM, first compound 3.16 µM
[18] = second compound 0.316 µM, first compound 10 µM
[19] = second compound 1 µM, first compound 0.0316 µM
[20] = second compound 1 µM, first compound 0.1 µM
[21] = second compound 1 µM, first compound 0.316 µM
[22] = second compound 1 µM, first compound 1 µM
[23] = second compound 1 µM, first compound 3.16 µM
[24] = second compound 1 µM, first compound 10 µM
[25] = second compound 3.16 µM, first compound 0.0316 µM
[26] = second compound 3.16 µM, first compound 0.1 µM
[27] = second compound 3.16 µM, first compound 0.316 µM
[28] = second compound 3.16 µM, first compound 1 µM
[29] = second compound 3.16 µM, first compound 3.16 µM
[30] = second compound 3.16 µM, first compound 10 µM
[31] = second compound 10 µM, first compound 0.0316 µM
[32] = second compound 10 µM, first compound 0.1 µM
[33] = second compound 10 µM, first compound 0.316 µM
[34] = second compound 10 µM, first compound 1 µM
[35] = second compound 10 µM, first compound 3.16 µM
[36] = second compound 10 µM, first compound 10 µM
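Note: spheroids exposed to compounds for seven days before readout.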

In the case of `CC1(C)CCC(Nc2ncc(C(F)(F)F)c(-c3c[nH]c4c(P(C)(C)=O)c(C#N)ccc34)n2)CN1` (stereo unspecified) + Cc1nc(NC(=O)N2CCCC2C(N)=O)sc1-c1ccnc(C(C)(C)C(F)(F)F)c1, the IC50 (second compound 0.0316 µM) is reported as 6.39 µM, the IC50 (second compound 0.1 µM) is reported as 4.53 µM and the IC50 (second compound 0.316 µM) is reported as 4.09 µM. For the same molecule, the IC50 (second compound 1 µM) was 3.33 µM, the IC50 (second compound 3.16 µM) was 2.58 µM and the IC50 (second compound 10 µM) was 1.04 µM. It also gave a viability, T/C [1] of 108%, a viability, T/C [2] of 136% and a viability, T/C [3] of 84%. The viability, T/C [4] was 72.4%, the viability, T/C [5] was 71.4% and the viability, T/C [6] was 39%. It also gave a viability, T/C [7] of 140%, a viability, T/C [8] of 112% and a viability, T/C [9] of 83.5%. It also gave a viability, T/C [10] of 72.2%, a viability, T/C [11] of 55.9% and a viability, T/C [12] of 40.3%. It also gave a viability, T/C [13] of 119%, a viability, T/C [14] of 79.5% and a viability, T/C [15] of 96.2%. It also gave a viability, T/C [16] of 59.4%, a viability, T/C [17] of 67.1% and a viability, T/C [18] of 30.9%. For the same molecule, the viability, T/C [19] was 103%, the viability, T/C [20] was 82% and the viability, T/C [21] was 86.5%. The viability, T/C [22] was 67.6%, the viability, T/C [23] was 55.2% and the viability, T/C [24] was 22.8%. It also gave a viability, T/C [25] of 80.5%, a viability, T/C [26] of 83.9% and a viability, T/C [27] of 73.5%. For the same molecule, the viability, T/C [28] was 55.3%, the viability, T/C [29] was 52.6% and the viability, T/C [30] was 25.2%. The viability, T/C [31] was 77.5%, the viability, T/C [32] was 63.2% and the viability, T/C [33] was 45.5%. For the same molecule, the viability, T/C [34] was 57.1%, the viability, T/C [35] was 44.3% and the viability, T/C [36] was 14.5%.

`CC(Cn1ccc(-c2ccc(C#N)c(Cl)c2)n1)NC(=O)c1cc(C(C)O)[nH]n1` (stereo unspecified) + Cc1nc(NC(=O)N2CCCC2C(N)=O)sc1-c1ccnc(C(C)(C)C(F)(F)F)c1 was tested, and the IC50 (second compound 0.0316 µM) was over 10 µM, the IC50 (second compound 0.1 µM) was over 10 µM and the IC50 (second compound 0.316 µM) was over 10 µM. For the same molecule, the IC50 (second compound 1 µM) was over 10 µM, the IC50 (second compound 3.16 µM) was over 10 µM and the IC50 (second compound 10 µM) was over 10 µM. For the same molecule, the viability, T/C [1] was 78.8%, the viability, T/C [2] was 98.7% and the viability, T/C [3] was 84.2%. The viability, T/C [4] was 114%, the viability, T/C [5] was 102% and the viability, T/C [6] was 107%. For the same molecule, the viability, T/C [7] was 86.8%, the viability, T/C [8] was 92.8% and the viability, T/C [9] was 97.9%. For the same molecule, the viability, T/C [10] was 81.9%, the viability, T/C [11] was 91.9% and the viability, T/C [12] was 74.8%. It also gave a viability, T/C [13] of 106%, a viability, T/C [14] of 87.8% and a viability, T/C [15] of 90.8%. It also gave a viability, T/C [16] of 94.5%, a viability, T/C [17] of 86.3% and a viability, T/C [18] of 92.3%. The viability, T/C [19] was 62.9%, the viability, T/C [20] was 65.9% and the viability, T/C [21] was 95.9%. For the same molecule, the viability, T/C [22] was 72.8%, the viability, T/C [23] was 92.7% and the viability, T/C [24] was 80%. The viability, T/C [25] was 76.3%, the viability, T/C [26] was 55% and the viability, T/C [27] was 62.8%. It also gave a viability, T/C [28] of 68.4%, a viability, T/C [29] of 85.4% and a viability, T/C [30] of 72.6%. It also gave a viability, T/C [31] of 52.5%, a viability, T/C [32] of 59.7% and a viability, T/C [33] of 47.7%. It also gave a viability, T/C [34] of 59.7%, a viability, T/C [35] of 72% and a viability, T/C [36] of 50.5%.

For `C#Cc1c(F)ccc2cc(O)cc(-c3ncc4c(N5CC6CCC(C5)N6)nc(OCC56CCCN5CC(F)C6)nc4c3F)c12` (stereo unspecified) + COc1c(OCCCN2CCOCC2)ccc2c3n(c(=NC(=O)c4cnc(N)nc4)nc12)CCN3, the IC50 (second compound 0.00316 µM) was over 10 µM, the IC50 (second compound 0.01 µM) was over 10 µM and the IC50 (second compound 0.0316 µM) was 6.5 µM. It also gave an IC50 (second compound 0.1 µM) of 1.09 µM, an IC50 (second compound 0.316 µM) of under 0.0316 µM and an IC50 (second compound 1 µM) of under 0.0316 µM. The viability, T/C (second compound 0.00316 µM, first compound 0.0316 µM) was 112%, the viability, T/C (second compound 0.00316 µM, first compound 0.1 µM) was 107% and the viability, T/C (second compound 0.00316 µM, first compound 0.316 µM) was 83.9%. It also gave a viability, T/C (second compound 0.00316 µM, first compound 1 µM) of 108%, a viability, T/C (second compound 0.00316 µM, first compound 3.16 µM) of 86.9% and a viability, T/C (second compound 0.00316 µM, first compound 10 µM) of 74%. For the same molecule, the viability, T/C (second compound 0.01 µM, first compound 0.0316 µM) was 93.4%, the viability, T/C (second compound 0.01 µM, first compound 0.1 µM) was 86.9% and the viability, T/C (second compound 0.01 µM, first compound 0.316 µM) was 109%. It also gave a viability, T/C (second compound 0.01 µM, first compound 1 µM) of 73.3%, a viability, T/C (second compound 0.01 µM, first compound 3.16 µM) of 68.7% and a viability, T/C (second compound 0.01 µM, first compound 10 µM) of 56.7%. It also gave a viability, T/C [1] of 70.8%, a viability, T/C [2] of 86.9% and a viability, T/C [3] of 73.2%. It also gave a viability, T/C [4] of 70.4%, a viability, T/C [5] of 62.1% and a viability, T/C [6] of 42.9%. It also gave a viability, T/C [7] of 71.7%, a viability, T/C [8] of 63.4% and a viability, T/C [9] of 54.6%. It also gave a viability, T/C [10] of 51.6%, a viability, T/C [11] of 46.7% and a viability, T/C [12] of 28%. The viability, T/C [13] was 35.1%, the viability, T/C [14] was 41.2% and the viability, T/C [15] was 35.8%. For the same molecule, the viability, T/C [16] was 32.7%, the viability, T/C [17] was 20.4% and the viability, T/C [18] was 10%. For the same molecule, the viability, T/C [19] was 14.1%, the viability, T/C [20] was 18.1% and the viability, T/C [21] was 24.2%. For the same molecule, the viability, T/C [22] was 15.9%, the viability, T/C [23] was 8.98% and the viability, T/C [24] was 1.67%.
